Marks after values point to notes of the source that are not given here.
How the values were obtained:
HIV-1 = assay: Study 202 Phase 2b, virologic response (HIV-1 RNA <50 copies/mL, FDA Snapshot), with FTC/TDF
Source text: Subjects with a history of HIV-2, hepatitis B and/or C, cirrhosis of the liver or any known active or chronic active liver disease were excluded from the study.
The primary efficacy endpoint was virologic response at Week 24, defined as HIV-1 RNA <50 copies/mL using the FDA Snapshot Algorithm.

[1] = Study 202 ECG abnormalities; format: in vivo, human; settings: through Week 48
[2] = Study 202 fasting metabolic laboratory parameters; format: in vivo, human
Source text: All abnormalities in total cholesterol, LDL cholesterol, triglycerides, or glucose were Grade 1 or Grade 2.
Mean baseline values and changes from baseline in HbA1c, HOMA-IR, fasting LDL, fasting HDL, fasting total cholesterol, fasting total cholesterol/HDL ratio, and fasting triglycerides are shown in Table 36.

[3] = All CVC (N = 115), EFV (N = 28)
[4] = All CVC (N = 115), EFV (N = 28), through Week 48
[5] = CVC 100 mg (N = 58), through Week 48

CCCCOCCOc1ccc(-c2ccc3c(c2)/C=C(/C(=O)Nc2ccc([S@@+]([O-])Cc4cncn4CCC)cc2)CCCN3CC(C)C)cc1 [CVC, (S)-8-[4-(2-Butoxyethoxy)phenyl]-1-isobutyl-N-(4-{[(1-propyl-1H-imidazol-5-yl)methyl]sulfinyl}phenyl)-1,2,3,4-tetrahydro-1-benzazocine-5-carboxamide]
subjects who prematurely discontinued the study (HIV-1; CVC 100 mg arm): 29% | subjects with virologic success (HIV-1 RNA <50 copies/mL) (HIV-1; CVC 100 mg, Week 24): 76% | subjects with virologic success (HIV-1 RNA <50 copies/mL) (HIV-1; CVC 100 mg, Week 48): 68% | subjects who prematurely discontinued the study (HIV-1; CVC 200 mg arm): 27% | subjects with virologic success (HIV-1 RNA <50 copies/mL) (HIV-1; CVC 200 mg, Week 24): 73% | subjects with virologic success (HIV-1 RNA <50 copies/mL) (HIV-1; CVC 200 mg, Week 48): 64% | HR Abnormally high (120 bpm ≤ abnormally high) [1, 3]: 0 n (%) | HR Abnormally low (≤ 50 bpm) [1, 3]: 0 n (%) | PR Abnormally high (210 ms ≤ abnormally high) [1, 3]: 3 (3%) n (%) | QRS Abnormally high (120 ms ≤ abnormally high) [1, 3]: 1 (1%)^d n (%) | QRS Abnormally low (≤ 50 ms) [1, 3]: 0 n (%) | QTcB interval Borderline (450 ms ≤ borderline ≤ 480 ms) [1, 3]: 6 (6%) n (%) | QTcB interval Increase by >30-60 ms [1, 3]: 9 (9%) n (%) | QTcB interval Increase by >60 ms [1, 3]: 1 (1%) n (%) | QTcB interval Pathologically prolonged (> 500 ms) [1, 3]: 0 n (%) | QTcB interval Prolonged (480 ms < prolonged ≤ 500 ms) [1, 3]: 0 n (%) | QTcF interval Borderline (450 ms ≤ borderline ≤ 480 ms) [1, 3]: 2 (2%) n (%) | QTcF interval Increase by >30-60 ms [1, 3]: 7 (7%) n (%) | QTcF interval Increase by >60 ms [1, 3]: 1 (1%) n (%) | QTcF interval Pathologically prolonged (> 500 ms) [1, 3]: 0 n (%) | QTcF interval Prolonged (480 ms < prolonged ≤ 500 ms) [1, 3]: 0 n (%) | HR Abnormally high (120 bpm ≤ abnormally high) ([1]; CVC 100 mg (N = 58)): 0 n (%) | HR Abnormally low (≤ 50 bpm) ([1]; CVC 100 mg (N = 58)): 0 n (%) | PR Abnormally high (210 ms ≤ abnormally high) ([1]; CVC 100 mg (N = 58)): 2 (3%) n (%) | QRS Abnormally high (120 ms ≤ abnormally high) ([1]; CVC 100 mg (N = 58)): 1 (2%)^d n (%) | QRS Abnormally low (≤ 50 ms) ([1]; CVC 100 mg (N = 58)): 0 n (%) | QTcB interval Borderline (450 ms ≤ borderline ≤ 480 ms) ([1]; CVC 100 mg (N = 58)): 4 (8%) n (%) | QTcB interval Increase by >30-60 ms ([1]; CVC 100 mg (N = 58)): 6 (12%) n (%) | QTcB interval Increase by >60 ms ([1]; CVC 100 mg (N = 58)): 1 (2%) n (%) | QTcB interval Pathologically prolonged (> 500 ms) ([1]; CVC 100 mg (N = 58)): 0 n (%) | QTcB interval Prolonged (480 ms < prolonged ≤ 500 ms) ([1]; CVC 100 mg (N = 58)): 0 n (%) | QTcF interval Borderline (450 ms ≤ borderline ≤ 480 ms) ([1]; CVC 100 mg (N = 58)): 1 (2%) n (%) | QTcF interval Increase by >30-60 ms ([1]; CVC 100 mg (N = 58)): 4 (8%) n (%) | QTcF interval Increase by >60 ms ([1]; CVC 100 mg (N = 58)): 1 (2%) n (%) | QTcF interval Pathologically prolonged (> 500 ms) ([1]; CVC 100 mg (N = 58)): 0 n (%) | QTcF interval Prolonged (480 ms < prolonged ≤ 500 ms) ([1]; CVC 100 mg (N = 58)): 0 n (%) | HR Abnormally high (120 bpm ≤ abnormally high) ([1]; CVC 200 mg (N = 57)): 0 n (%) | HR Abnormally low (≤ 50 bpm) ([1]; CVC 200 mg (N = 57)): 0 n (%) | PR Abnormally high (210 ms ≤ abnormally high) ([1]; CVC 200 mg (N = 57)): 1 (2%) n (%) | QRS Abnormally high (120 ms ≤ abnormally high) ([1]; CVC 200 mg (N = 57)): 0 n (%) | QRS Abnormally low (≤ 50 ms) ([1]; CVC 200 mg (N = 57)): 0 n (%) | QTcB interval Borderline (450 ms ≤ borderline ≤ 480 ms) ([1]; CVC 200 mg (N = 57)): 2 (4%) n (%) | QTcB interval Increase by >30-60 ms ([1]; CVC 200 mg (N = 57)): 3 (6%) n (%) | QTcB interval Increase by >60 ms ([1]; CVC 200 mg (N = 57)): 0 n (%) | QTcB interval Pathologically prolonged (> 500 ms) ([1]; CVC 200 mg (N = 57)): 0 n (%) | QTcB interval Prolonged (480 ms < prolonged ≤ 500 ms) ([1]; CVC 200 mg (N = 57)): 0 n (%) | QTcF interval Borderline (450 ms ≤ borderline ≤ 480 ms) ([1]; CVC 200 mg (N = 57)): 1 (2%) n (%) | QTcF interval Increase by >30-60 ms ([1]; CVC 200 mg (N = 57)): 3 (6%) n (%) | QTcF interval Increase by >60 ms ([1]; CVC 200 mg (N = 57)): 0 n (%) | QTcF interval Pathologically prolonged (> 500 ms) ([1]; CVC 200 mg (N = 57)): 0 n (%) | QTcF interval Prolonged (480 ms < prolonged ≤ 500 ms) ([1]; CVC 200 mg (N = 57)): 0 n (%) | Any fasting laboratory abnormality, worst Grade 1 [2, 4]: 9 (8%) n (%) | Any fasting laboratory abnormality, worst Grade 2 [2, 4]: 7 (6%) n (%) | Any fasting laboratory abnormality, worst Grade 3 [2, 4]: 0 n (%) | Any fasting laboratory abnormality, worst Grade 4 [2, 4]: 0 n (%) | Any graded (Grade 1-4) fasting laboratory abnormality [2, 4]: 16 (14%) n (%) | Fasting LDL cholesterol abnormality, Grade 1 [2, 4]: 3 (3%) n (%) | Fasting LDL cholesterol abnormality, Grade 2 [2, 4]: 3 (3%) n (%) | Fasting LDL cholesterol abnormality, Grade 3 [2, 4]: 0 n (%) | Fasting LDL cholesterol abnormality, Grade 4 [2, 4]: 0 n (%) | Fasting LDL cholesterol abnormality, any grade [2, 4]: 6 (5%) n (%) | Fasting glucose (serum, high) abnormality, Grade 1 [2, 4]: 3 (3%) n (%) | Fasting glucose (serum, high) abnormality, Grade 2 [2, 4]: 2 (2%) n (%) | Fasting glucose (serum, high) abnormality, Grade 3 [2, 4]: 0 n (%) | Fasting glucose (serum, high) abnormality, Grade 4 [2, 4]: 0 n (%) | Fasting glucose (serum, high) abnormality, any grade [2, 4]: 5 (4%) n (%) | Fasting total cholesterol abnormality, Grade 1 [2, 4]: 5 (4%) n (%) | Fasting total cholesterol abnormality, Grade 2 [2, 4]: 3 (3%) n (%) | Fasting total cholesterol abnormality, Grade 3 [2, 4]: 0 n (%) | Fasting total cholesterol abnormality, Grade 4 [2, 4]: 0 n (%) | Fasting total cholesterol abnormality, any grade [2, 4]: 8 (7%) n (%) | Fasting triglycerides abnormality, Grade 1 [2, 4]: 0 n (%) | Fasting triglycerides abnormality, Grade 2 [2, 4]: 1 (<1%) n (%) | Fasting triglycerides abnormality, Grade 3 [2, 4]: 0 n (%) | Fasting triglycerides abnormality, Grade 4 [2, 4]: 0 n (%) | Fasting triglycerides abnormality, any grade [2, 4]: 1 (<1%) n (%) | Fasting triglycerides, mean change from baseline ([2]; All CVC, EFV, Week 4): -5 mg/dL | HOMA-IR, mean change from baseline ([2]; All CVC, EFV, Week 4): −0.30 | HbA1c, mean change from baseline ([2]; All CVC, EFV, Week 4): −0.03 % Hb | HbA1c, mean change from baseline ([2]; All CVC, EFV, Week 12): −0.06 % Hb | HbA1c, mean change from baseline ([2]; All CVC, EFV, Week 24): 0.06 % Hb | HbA1c, mean change from baseline ([2]; All CVC, EFV, Week 48): 0.10 % Hb | Any fasting laboratory abnormality, worst Grade 1 [2, 5]: 3 (5%) n (%) | Any fasting laboratory abnormality, worst Grade 2 [2, 5]: 1 (2%) n (%) | Any fasting laboratory abnormality, worst Grade 3 [2, 5]: 0 n (%) | Any fasting laboratory abnormality, worst Grade 4 [2, 5]: 0 n (%) | Any graded (Grade 1-4) fasting laboratory abnormality [2, 5]: 4 (7%) n (%) | Fasting LDL cholesterol abnormality, Grade 1 [2, 5]: 1 (2%) n (%) | Fasting LDL cholesterol abnormality, Grade 2 [2, 5]: 1 (2%) n (%) | Fasting LDL cholesterol abnormality, Grade 3 [2, 5]: 0 n (%) | Fasting LDL cholesterol abnormality, Grade 4 [2, 5]: 0 n (%) | Fasting LDL cholesterol abnormality, any grade [2, 5]: 2 (3%) n (%)

Reference: patent publication US20200368247A1, “CENICRIVIROC FOR THE TREATMENT OF FIBROSIS” (Tobira Therapeutics, Inc., priority 2014, published 2020)
